The record followed here is patent US20250388542A1, “ANALOGUES OF PENTAMIDINE AND USES THEREFOR” (Auransa Inc., priority 2018, published 2025).

What all share (type): cell-based
One experiment concerns DU4475. In words: CellTiter-Glo cytotoxicity, cancer cell line panel / breast cancer study. As to conditions: DU4475, Breast carcinoma. The protocol: (§1) The objective of this study is to investigate potential cell killing effect of Compounds 1-15 on 3 cancer cell lines. 50% inhibition concentration (IC50) was determined for these compounds in various cancer cell lines using CellTiter-Glo™ luminescent cell viability assay at different compound concentrations. Each cell line (e.g., NCI-H209; NCI-H69; and SW1271) was treated with Compounds 1-15 and culture medium contains 0.2% [v/v] DMSO vehicle control. All the cells were cultured in the media supplemented with 10-20% fetal bovine serum at 37° C., 5% CO2 and 95% humidity.
(§2) The objective of this study is to investigate the effect of Compound 1 on cytotoxicity against 61 different types of cancer cell lines. IC50 were values were obtained using CellTiter-Glo™ as described above. Each cell line shown in Table 3 was treated with Compound 1, a standard chemotherapy drug, cisplatin, as reference control and culture medium contains 0.2% [v/v] DMSO vehicle control. All cancer cell lines were cultured in media supplemented with 10-20% fetal bovine serum at 37° C., 5% CO2 and 95% humidity.
(§3) The objective of this study is to investigate the effect of Compound 1 on cell viability of various types of breast cancer. Four different breast cancer cell lines were employed in the study. Each cell line shown in Table 5 was treated with Compound 1 and standard of care (cisplatin) and culture medium contains 0.2% [v/v] DMSO vehicle control and IC50 values were obtained as described above. The raw data values from the CellTiter-Glo™ cell viability assay expressed in relative luminescence units were normalized to the vehicle for each individual plate, and any reduction in luminescence indicated a decrease in viability (%). The data was analyzed in GraphPad PRISM using a non-linear sigmoidal plot with variable slope (asymmetric four-point linear regression), and an IC50 value for each compound was generated. The experiment tested pentamidine, compound 1, and standard-of-care control Cisplatin in full growth media for 8 days. Cells were initially treated with the test compounds on Day 0, and the cells were then replenished with fresh compound dilutions on Day 3. Pentamidine, Compound 1, and cisplatin were tested at 9 concentration points; 100, 33.33, 11.11, 3.70, 1.23, 0.41, 0.14, 0.05, and 0.02 μM (final DMSO concentration=0.5%).
On the technique in general: Cellular ATP, detected with luciferase, serves as a proxy for viable cell number.

In a further experiment the test system is ZR-75-1. Described as above. As to conditions: ZR-75-1, Invasive ductal carcinoma. The protocol:
as §1, §2, §3

Another experiment concerns HCC1954. Described as above. Particulars: HCC1954, Ductal breast carcinoma. The protocol:
as §1, §2, §3

A further experiment deals with Hep3B-luc. Briefly: CellTiter-Glo cell viability, liver cell lines, 8 days. As to conditions: full growth media. The protocol: (§4) The objective of this study is to investigate the effect of Compound 1 on cell viability of various types of liver cancer. Ten (10) different liver cancer cell lines were employed in the study. Each liver cell line shown in Table 4 was treated with Compound 1, pentamidine, as reference control, a standard of care (cisplatin) and culture medium contains 0.2% [v/v] DMSO vehicle control and IC50 values were obtained as described above. The raw data values from the CellTiter-Glo™ cell viability assay expressed in relative luminescence units were normalized to the vehicle for each individual plate, and any reduction in luminescence indicated a decrease in viability (%). The data was analyzed in GraphPad PRISM using a non-linear sigmoidal plot with variable slope (asymmetric four-point linear regression), and an IC50 value for each compound was generated. The experiment tested pentamidine, compound 1, and standard-of-care control Cisplatin in full growth media for 8 days. Cells were initially treated with the test compounds on Day 0, and the cells were then replenished with fresh compound dilutions on Day 3. Pentamidine, Compound 1, and cisplatin were tested at 9 concentration points; 100, 33.33, 11.11, 3.70, 1.23, 0.41, 0.14, 0.05, and 0.02 μM (final DMSO concentration=0.5%). In particular, the IC50 values of pentamidine and Compound 1 were 0.8 and 0.6 μM in Hep3B-luc, respectively.
The experiment tested pentamidine, Compound 1, and standard of care control, cisplatin, in full growth media for 8 days. Hep-3b cells were initially treated with the test compounds on Day 0, and the cells were then replenished with fresh compound dilutions on Day 3. […] The raw data values from the CellTiter-Glo™ cell viability assay expressed in relative luminescence units were normalized to the vehicle for each individual plate, and any reduction in luminescence indicated a decrease in viability (%). The data was analyzed in GraphPad PRISM using a non-linear sigmoidal plot with variable slope (asymmetric four-point linear regression), and an IC50 value for each compound was generated. […]

The next experiment concerns HUH1. Described as above. Particulars: Homo sapiens, HuH-1, 192 h; HUH1, 8 days. The procedure:
as §4

A further experiment deals with MHCC97H. Described as above. Particulars: Homo sapiens, 192 h. The protocol: as §4
The test system of another experiment is HCCLM3. Described as above. Particulars: Homo sapiens, 192 h; HCCLM3, 8 days. The protocol: as §4
Another experiment has as its system HepG2. The description is as above. As to conditions: Homo sapiens, 192 h; HepG2, 8 days. The procedure: as §4
The next experiment concerns SK-HEP-1. The experiment is described as above. As to conditions: Homo sapiens. The protocol: as §4
The test system of the next experiment is Hep3B. The experiment is described as above. As to conditions: Homo sapiens, 192 h. The procedure:
as §4

The test system of the next experiment is HUH7. The description is as above. Particulars: Homo sapiens, Huh-7, 192 h; HUH7, 8 days. The protocol: as §4
The next experiment has as its system HEP3B2.7-1. Described as above. As to conditions: HEP3B2.7-1, Table 4. The procedure: as §4

By pIC50 is commonly meant −log10 of the IC50, conventionally taken in molar units.

pIC50: −log10 of the molar value.

Regarding `N.N.[Cl][Pt][Cl]` [Cisplatin, cisplatin, reference compound], the pIC50 is 6.22 with DU4475, 5.99 in the experiment on ZR-75-1, 6.11 in the experiment on HCC1954 and 5.29 in the experiment with Hep3B-luc.

Turning to `N=C(N)c1ccc(OCCCCCOc2ccc(C(=N)N)cc2)cc1` [Pentamidine, 1,5-bis(4-amidinophenoxy)pentane], the pIC50 in the experiment with Hep3B-luc (Hep 3B-Luc, 192 h) was 6.10; in the experiment on HUH1 it was 5.75; with MHCC97H, 5.37; with HCCLM3, 5.16; in the experiment on HepG2, 6.54; with SK-HEP-1 (SK-HEP1, SK-HEP-1, first listing in Table 4), 5.84. Also, the pIC50 in the experiment on SK-HEP-1 (SK-HEP1, SK-HEP-1, second listing in Table 4) was 6.14; in the experiment on Hep3B, 6.80; in the experiment on HUH7 it was 6.17; in the experiment on HEP3B2.7-1, 6.55.
